Test results published in PubChem BioAssay AID330 (DTP/NCI, 2004).
Where “and” joins values, the source holds several entries; their conditions need not be identical. Equal values may be shown once. Inconclusive results and toxic doses are left out. How the source made its calls: active means survival T/C of 150% or more; inactive means T/C below 125% in these data. Peptide text beside a SMILES is read from it.

Tested on: P388 leukemia ip, CD2F1 mice, survival T/C
Experiment: NCI In Vivo Anticancer Drug Screen. Data for tumor model P388 Leukemia (intraperitoneal) in CD2F1 (CDF1) mice
Conditions: endpoint: median survival time, higher = longer survival
How it was run: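 Mice carrying the transplanted tumor received test compound or vehicle. Survival was recorded in each group, and the value is the treated-group measurement divided by that of the vehicle-treated control group.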

[1] = dose: 50.0 mg/kg/injection, schedule: Q01DX009 (ip), vehicle: Klucel (hydroxypropylcellulose) (HPC)
[2] = dose: 100.0 mg/kg/injection, schedule: Q01DX009 (ip), vehicle: Klucel (hydroxypropylcellulose) (HPC)
[3] = dose: 200.0 mg/kg/injection, schedule: Q01DX009 (ip), vehicle: Klucel (hydroxypropylcellulose) (HPC)
[4] = dose: 12.5 mg/kg/injection, schedule: Q01DX009 (ip), vehicle: Klucel (hydroxypropylcellulose) (HPC)
[5] = dose: 25.0 mg/kg/injection, schedule: Q01DX009 (ip), vehicle: Klucel (hydroxypropylcellulose) (HPC)
[6] = dose: 50.0 mg/kg/injection, schedule: Q01DX005 (ip), vehicle: saline
[7] = dose: 100.0 mg/kg/injection, schedule: Q01DX005 (ip), vehicle: saline
[8] = dose: 200.0 mg/kg/injection, schedule: Q01DX001 (ip), vehicle: Klucel (hydroxypropylcellulose) (HPC)
[9] = dose: 50.0 mg/kg/injection, schedule: Q01DX005 (ip), vehicle: saline with Tween-80
[10] = dose: 100.0 mg/kg/injection, schedule: Q01DX005 (ip), vehicle: saline with Tween-80
[11] = dose: 50.0 mg/kg/injection, schedule: Q01DX009 (ip), vehicle: saline with Tween-80
[12] = dose: 100.0 mg/kg/injection, schedule: Q01DX009 (ip), vehicle: saline with Tween-80

Measured: T/C

CCC(C)C1(O)OC2CC3(C)OC(=CC3=O)/C(C)=C\C3OC(=O)C1(C)C32 (stereo not given)
inactive: dose: 10.0 mg/kg/injection, schedule: Q01DX005 (ip), vehicle: saline + alcohol 96 % of control | dose: 20.0 mg/kg/injection, schedule: Q01DX005 (ip), vehicle: saline + alcohol 100 % of control | dose: 40.0 mg/kg/injection, schedule: Q01DX005 (ip), vehicle: saline + alcohol 105 % of control | dose: 80.0 mg/kg/injection, schedule: Q01DX005 (ip), vehicle: saline + alcohol 99 % of control

Cc1ncc([N+](=O)[O-])n1CCSC#N
inactive: dose: 6.25 mg/kg/injection, schedule: Q04DX003 (ip), vehicle: saline with Tween-80 105 % of control | dose: 12.5 mg/kg/injection, schedule: Q04DX003 (ip), vehicle: saline with Tween-80 96 % of control

O=S(=O)(c1ccc(NC(=S)NCc2ccco2)cc1)N1CCCCC1
inactive: [1] 88 % of control | [2] 93 % of control | [3] 92 % of control

Cc1ccc(S(=O)(=O)C(=S)N(C)N(C)C)cc1
inactive: [4] 115 % of control | [5] 117 % of control

NC(N)=NCCCC(N)C(=O)N1CCCC1C(=O)O (stereo not drawn) (H-Arg-Pro-OH; configuration not given here)
inactive: [6] 101 % of control | [7] 97 % of control | dose: 200.0 mg/kg/injection, schedule: Q01DX005 (ip), vehicle: saline 100 % of control

COC1(c2ccccc2)N=C(N)NC1(OC)c1ccccc1 (stereo not given)
inactive: dose: 6.25 mg/kg/injection, schedule: Q04DX002 (ip), vehicle: saline 103 % of control | dose: 12.5 mg/kg/injection, schedule: Q04DX002 (ip), vehicle: saline 102 % of control | dose: 25.0 mg/kg/injection, schedule: Q04DX002 (ip), vehicle: saline 98 % of control

CCOC(=O)c1cccc2c(=O)c3c([nH]c12)C(=O)c1c([nH]c2c(C(=O)OCC)cccc2c1=O)C3=O
inactive: [1] 98 % of control | [2] 90 % of control | [3] 90 % of control

C=CCN(CC=C)CCSC(=S)NCCOC
inactive: dose: 100.0 mg/kg/injection, schedule: Q04DX003 (ip), vehicle: saline with Tween-80 100 % of control | dose: 200.0 mg/kg/injection, schedule: Q04DX003 (ip), vehicle: saline with Tween-80 95 % of control

CCC(=O)OCc1c(-c2ccccc2)nc2sccn12
inactive: [8] 103 % of control

CCCCCNCC(=O)O
inactive: [6] 91 % of control | [7] 96 % of control

CC(C)CN=C1NS(=O)(=O)c2ccccc21
inactive: [9] 100 % of control | [10] 101 % of control | dose: 200.0 mg/kg/injection, schedule: Q01DX005 (ip), vehicle: saline with Tween-80 101 % of control

O=C1c2cc(I)cc(I)c2NC(O)c2cccn21 (stereo not given)
inactive: dose: 0.1 mg/kg/injection, schedule: Q01DX005 (ip), vehicle: water 102 % of control | dose: 0.2 mg/kg/injection, schedule: Q01DX005 (ip), vehicle: water 98 % of control | dose: 0.4 mg/kg/injection, schedule: Q01DX005 (ip), vehicle: water 102 % of control | dose: 0.8 mg/kg/injection, schedule: Q01DX005 (ip), vehicle: water 98 % of control | dose: 1.6 mg/kg/injection, schedule: Q01DX005 (ip), vehicle: water 99 % of control | dose: 5.0 mg/kg/injection, schedule: Q01DX005 (ip), vehicle: distilled water + Tween-80 94 % of control | dose: 10.0 mg/kg/injection, schedule: Q01DX005 (ip), vehicle: distilled water + Tween-80 95 % of control | dose: 20.0 mg/kg/injection, schedule: Q01DX005 (ip), vehicle: distilled water + Tween-80 102 % of control | dose: 40.0 mg/kg/injection, schedule: Q01DX005 (ip), vehicle: distilled water + Tween-80 102 % of control | dose: 80.0 mg/kg/injection, schedule: Q01DX005 (ip), vehicle: distilled water + Tween-80 98 % of control

COc1cccc2c1C(=O)c1c(O)c3c(c(O)c1C2=O)CC(O)(C(C)=O)CC3OC1CC(NC(=O)C(N)CCCCN)C(O)C(C)O1 (stereo not given)
inactive: dose: 2.5 mg/kg/injection, schedule: Q04DX003 (ip), vehicle: water 101 % of control | dose: 5.0 mg/kg/injection, schedule: Q04DX003 (ip), vehicle: water 101 % of control and 103 % of control | dose: 10.0 mg/kg/injection, schedule: Q04DX003 (ip), vehicle: distilled water + Tween-80 95 % of control | dose: 10.0 mg/kg/injection, schedule: Q04DX003 (ip), vehicle: water 101 % of control and 109 % of control | dose: 20.0 mg/kg/injection, schedule: Q04DX003 (ip), vehicle: distilled water + Tween-80 96 % of control | dose: 20.0 mg/kg/injection, schedule: Q04DX003 (ip), vehicle: water 109 % of control and 118 % of control | dose: 40.0 mg/kg/injection, schedule: Q04DX003 (ip), vehicle: distilled water + Tween-80 105 % of control | dose: 40.0 mg/kg/injection, schedule: Q04DX003 (ip), vehicle: water 106 % of control and 122 % of control | dose: 80.0 mg/kg/injection, schedule: Q04DX003 (ip), vehicle: distilled water + Tween-80 112 % of control | dose: 80.0 mg/kg/injection, schedule: Q04DX003 (ip), vehicle: water 118 % of control

COc1cc2c(cc1OC)C(Cc1cc(Br)sc1Br)N(C(C)=O)CC2 (stereo not given)
inactive: dose: 100.0 mg/kg/injection, schedule: Q01DX001 (ip), vehicle: Klucel (hydroxypropylcellulose) (HPC) 101 % of control | [8] 101 % of control | dose: 400.0 mg/kg/injection, schedule: Q01DX001 (ip), vehicle: Klucel (hydroxypropylcellulose) (HPC) 113 % of control

O=c1c(O)cc2c(O)oc3c(=O)c(O)c(O)c4c(O)oc1c2c43
inactive: dose: 25.0 mg/kg/injection, schedule: Q01DX009 (ip), vehicle: suspension in saline 114 % of control and 97 % of control | dose: 50.0 mg/kg/injection, schedule: Q01DX009 (ip), vehicle: suspension in saline 111 % of control and 97 % of control | dose: 100.0 mg/kg/injection, schedule: Q01DX009 (ip), vehicle: suspension in saline 112 % of control and 98 % of control | dose: 200.0 mg/kg/injection, schedule: Q01DX009 (ip), vehicle: suspension in saline 103 % of control and 114 % of control

Cc1ccc2nc3cc(N)ccc3c(-c3ccc(N)cc3)c2c1
inactive: dose: 50.0 mg/kg/injection, schedule: Q01DX005 (ip), vehicle: Klucel (hydroxypropylcellulose) (HPC) 97 % of control | dose: 100.0 mg/kg/injection, schedule: Q01DX005 (ip), vehicle: Klucel (hydroxypropylcellulose) (HPC) 102 % of control | dose: 200.0 mg/kg/injection, schedule: Q01DX005 (ip), vehicle: Klucel (hydroxypropylcellulose) (HPC) 97 % of control

CC1(C)CCCc2c(-c3ccccc3)cc3c4ccccc4cc[n+]3c21
inactive: [11] 89 % of control | [12] 88 % of control

CCC[CH2][Sn]([CH2]CCC)([CH2]CCN(C)C)[CH2]CCN(C)C
inactive: [11] 97 % of control | [12] 104 % of control

O=C(O)c1cc(-n2c(-c3ccccc3)cc3c2CCc2ccccc2-3)ccc1O
inactive: [9] 109 % of control | [10] 110 % of control

CCN(CC)c1cccc(OC(=O)Nc2cccc(Cl)c2Cl)c1
inactive: dose: 60.0 mg/kg/injection, schedule: Q01DX005 (ip), vehicle: saline with Tween-80 100 % of control | dose: 120.0 mg/kg/injection, schedule: Q01DX005 (ip), vehicle: saline with Tween-80 100 % of control | dose: 240.0 mg/kg/injection, schedule: Q01DX005 (ip), vehicle: saline with Tween-80 92 % of control

C/C(=N\NC(=S)N1CCN(c2ncccn2)CC1)c1ccccn1
inactive: dose: 6.25 mg/kg/injection, schedule: Q01DX005 (ip), vehicle: saline with Tween-80 119 % of control | dose: 12.5 mg/kg/injection, schedule: Q01DX005 (ip), vehicle: saline with Tween-80 119 % of control

COc1cc(/C=C2\CCC/C(=C\c3ccc(OCC4CO4)c(OC)c3)C2=O)ccc1OCC1CO1 (stereo not given)
inactive: [11] 101 % of control | [12] 95 % of control | dose: 200.0 mg/kg/injection, schedule: Q01DX009 (ip), vehicle: saline with Tween-80 94 % of control

CC(C)(C)c1cc2c(=O)o[s+]3oc(=O)c(c1)c23
inactive: dose: 6.25 mg/kg/injection, schedule: Q01DX009 (ip), vehicle: Klucel (hydroxypropylcellulose) (HPC) 107 % of control | [4] 104 % of control | [5] 111 % of control

O=C(CNO)OCc1ccccc1
inactive: dose: 25.0 mg/kg/injection, schedule: Q01DX009 (ip), vehicle: other 97 % of control | dose: 50.0 mg/kg/injection, schedule: Q01DX009 (ip), vehicle: other 106 % of control | dose: 100.0 mg/kg/injection, schedule: Q01DX009 (ip), vehicle: other 104 % of control | dose: 200.0 mg/kg/injection, schedule: Q01DX009 (ip), vehicle: other 100 % of control | dose: 400.0 mg/kg/injection, schedule: Q01DX009 (ip), vehicle: other 106 % of control
